Reference: patent publication US12077503B2, “Substituted cyclic amides and their use as herbicides” (FMC CORPORATION, priority 2015, dated 2024)

What was measured:
Format in all cases: in vivo
Kochia (Kochia scoparia) [1] = test: Test A preemergence; details: for Plant response rating, Kochia: 125 g ai/ha; for Kochia plant response rating (0 to 100 scale, 0 is no effect, 100 is complete control): 500 g ai/ha, visual injury approx. 10 d
Summary of the method: (§1)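 Treatment is preemergence as a directed soil spray after planting, or postemergence at the one- to two-leaf stage, with test chemical in a non-phytotoxic solvent mixture plus surfactant. Plants stay in the greenhouse about 10 d before visual injury scoring on a 0 to 100 scale versus untreated controls.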

[2] = test system: barnyardgrass (Echinochloa crus-galli); test: Test A preemergence; details: for Plant response rating, Barnyardgrass: 125 g ai/ha; for Barnyardgrass plant response rating (0 to 100 scale, 0 is no effect, 100 is complete control): 500 g ai/ha, visual injury approx. 10 d
Summary of the method: as §1

[3] = test system: giant foxtail (Setaria faberii); test: Test A preemergence; details: for Plant response rating, Foxtail, Giant: 125 g ai/ha; for Foxtail, Giant plant response rating (0 to 100 scale, 0 is no effect, 100 is complete control): 500 g ai/ha, visual injury approx. 10 d
Summary of the method: as §1

[4] = test system: pigweed (Amaranthus retroflexus); test: Test A preemergence; details: for Plant response rating, Pigweed: 125 g ai/ha; for Pigweed plant response rating (0 to 100 scale, 0 is no effect, 100 is complete control): 500 g ai/ha, visual injury approx. 10 d
[5] = test system: ragweed (common ragweed, Ambrosia elatior); test: Test A preemergence; details: for Plant response rating, Ragweed: 125 g ai/ha; for Ragweed plant response rating (0 to 100 scale, 0 is no effect, 100 is complete control): 500 g ai/ha, visual injury approx. 10 d
Summary of the method: as §1

[6] = test system: ryegrass, Italian (Italian ryegrass, Lolium multiflorum); test: Test A preemergence; details: for Plant response rating, Ryegrass, Italian: 125 g ai/ha; for Ryegrass, Italian plant response rating (0 to 100 scale, 0 is no effect, 100 is complete control): 500 g ai/ha, visual injury approx. 10 d
Summary of the method: as §1

[7] = test system: Galium (catchweed bedstraw, Galium aparine); test: Test A postemergence
Summary of the method: as §1

Kochia (Kochia scoparia) [8] = test: Test A postemergence
Summary of the method: as §1

[9] = test system: barnyardgrass (Echinochloa crus-galli); test: Test A postemergence
Summary of the method: as §1

[10] = test system: blackgrass (Alopecurus myosuroides); test: Test A postemergence
Summary of the method: as §1

corn (Zea mays) = test: Test A postemergence
Summary of the method: as §1

[11] = test system: giant foxtail (Setaria faberii); test: Test A postemergence
Summary of the method: as §1

[12] = test system: pigweed (Amaranthus retroflexus); test: Test A postemergence
Summary of the method: as §1

[13] = test system: ragweed (common ragweed, Ambrosia elatior); test: Test A postemergence
Summary of the method: as §1

[14] = test system: ryegrass, Italian (Italian ryegrass, Lolium multiflorum); test: Test A postemergence
Summary of the method: as §1

[15] = test system: wheat (Triticum aestivum); test: Test A postemergence
Summary of the method: as §1

[16] = test system: barnyardgrass (Echinochloa crus-galli); test: Test B flooded paddy test; details: Flood, 250 g ai/ha; 0 to 100 scale where 0 is no effect and 100 is complete control; 13 to 15 d
Summary of the method: (§2)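 Compound goes directly into floodwater once pots are flooded 3 cm above soil, targeting plants at two leaves; the water depth is then held for the test duration. Plants sit 13–15 d in a greenhouse and are rated visually, 100 denoting complete control.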

[17] = test system: ducksalad (Heteranthera limosa); test: Test B flooded paddy test; details: Flood, 250 g ai/ha; 0 to 100 scale where 0 is no effect and 100 is complete control; 13 to 15 d
Summary of the method: as §2

rice (Oryra sativa) = test: Test B flooded paddy test; details: Flood, 250 g ai/ha; 0 to 100 scale where 0 is no effect and 100 is complete control; 13 to 15 d
Summary of the method: as §2

[18] = test system: sedge, umbrella (small-flower umbrella sedge, Cyperus difformis); test: Test B flooded paddy test; details: Flood, 250 g ai/ha; 0 to 100 scale where 0 is no effect and 100 is complete control; 13 to 15 d
Summary of the method: as §2

[19] = preemergence, 0 to 100 scale (0 no effect, 100 complete control)
[20] = 125 g ai/ha, postemergence, visual injury rating on 0 to 100 scale (0 no effect, 100 complete control), approx. 10 d
[21] = 500 g ai/ha, postemergence, 0 to 100 scale, 0 no effect, 100 complete control
[22] = Preemergence, visual injury after approximately 10 d, 0 to 100 scale where 0 is no effect and 100 is complete control
[23] = 125 g ai/ha, postemergence, visual rating after approx. 10 d, 0 to 100 scale (0 no effect, 100 complete control)
[24] = Postemergence, 500 g ai/ha, 0 to 100 scale where 0 is no effect and 100 is complete control

CN1CC(c2ccc3c(c2)OC(F)(F)O3)C(C(=O)Nc2ccccc2S(C)(=O)=O)C1=O (stereo not drawn) [Compound 443]
Plant response rating, Kochia (Kochia (Kochia scoparia) [1]; [19]): 30 | Kochia plant response rating (0 to 100 scale, 0 is no effect, 100 is complete control) (Kochia (Kochia scoparia) [1]; Preemergence): 80 | Plant response rating, Barnyardgrass [2, 19]: 90 | Barnyardgrass plant response rating (0 to 100 scale, 0 is no effect, 100 is complete control) ([2]; Preemergence): 90 | Plant response rating, Foxtail, Giant [3, 19]: 90 | Foxtail, Giant plant response rating (0 to 100 scale, 0 is no effect, 100 is complete control) ([3]; Preemergence): 90 | Plant response rating, Pigweed [4, 19]: 80 | Pigweed plant response rating (0 to 100 scale, 0 is no effect, 100 is complete control) ([4]; Preemergence): 90 | Plant response rating, Ragweed [5, 19]: 80 | Ragweed plant response rating (0 to 100 scale, 0 is no effect, 100 is complete control) ([5]; Preemergence): 80 | Plant response rating, Ryegrass, Italian [6, 19]: 40 | Ryegrass, Italian plant response rating (0 to 100 scale, 0 is no effect, 100 is complete control) ([6]; Preemergence): 50 | Galium plant response rating [7, 20]: 40 | Plant response rating, Galium [7, 21]: 50 | Kochia plant response rating (Kochia (Kochia scoparia) [8]; [20]): 20 | Plant response rating, Kochia (Kochia (Kochia scoparia) [8]; [21]): 30 | Barnyardgrass plant response rating [9, 20]: 80 | Plant response rating, Barnyardgrass [9, 21]: 80 | Blackgrass plant response rating [10, 20]: 60 | Plant response rating, Blackgrass [10, 21]: 70 | Corn plant response rating (corn (Zea mays); [20]): 40 | Plant response rating, Corn (corn (Zea mays); [21]): 80 | Foxtail, Giant plant response rating [11, 20]: 80 | Plant response rating, Foxtail, Giant [11, 21]: 80 | Pigweed plant response rating [12, 20]: 20 | Plant response rating, Pigweed [12, 21]: 50 | Ragweed plant response rating [13, 20]: 20 | Plant response rating, Ragweed [13, 21]: 20 | Ryegrass, Italian plant response rating [14, 20]: 30 | Plant response rating, Ryegrass, Italian [14, 21]: 60 | Wheat plant response rating [15, 20]: 40 | Plant response rating, Wheat [15, 21]: 60 | Plant response rating, Barnyardgrass [16]: 70 | Plant response rating, Ducksalad [17]: 80 | Plant response rating, Rice (rice (Oryra sativa)): 0 | Plant response rating, Sedge, Umbrella [18]: 0

O=C1NCC(c2ccsc2Cl)C1C(=O)Nc1ccccc1F (stereo not drawn) [Compound 599]
Plant response rating, Kochia (Kochia (Kochia scoparia) [1]; [22]): 0 | Kochia plant response rating (0 to 100 scale, 0 is no effect, 100 is complete control) (Kochia (Kochia scoparia) [1]; Preemergence): 0 | Plant response rating, Barnyardgrass [2, 22]: 0 | Barnyardgrass plant response rating (0 to 100 scale, 0 is no effect, 100 is complete control) ([2]; Preemergence): 30 | Plant response rating, Foxtail, Giant [3, 22]: 0 | Foxtail, Giant plant response rating (0 to 100 scale, 0 is no effect, 100 is complete control) ([3]; Preemergence): 0 | Plant response rating, Pigweed [4, 22]: 0 | Pigweed plant response rating (0 to 100 scale, 0 is no effect, 100 is complete control) ([4]; Preemergence): 0 | Plant response rating, Ragweed [5, 22]: 0 | Ragweed plant response rating (0 to 100 scale, 0 is no effect, 100 is complete control) ([5]; Preemergence): 0 | Plant response rating, Ryegrass, Italian [6, 22]: 0 | Ryegrass, Italian plant response rating (0 to 100 scale, 0 is no effect, 100 is complete control) ([6]; Preemergence): 0 | Plant response rating, Galium [7, 23]: 0 | Plant response rating, Galium [7, 24]: 0 | Plant response rating, Kochia (Kochia (Kochia scoparia) [8]; [23]): 0 | Plant response rating, Kochia (Kochia (Kochia scoparia) [8]; [24]): 0 | Plant response rating, Barnyardgrass [9, 23]: 0 | Plant response rating, Barnyardgrass [9, 24]: 20 | Plant response rating, Blackgrass [10, 23]: 0 | Plant response rating, Blackgrass [10, 24]: 0 | Plant response rating, Corn (corn (Zea mays); [23]): 0 | Plant response rating, Corn (corn (Zea mays); [24]): 0 | Plant response rating, Foxtail, Giant [11, 23]: 0 | Plant response rating, Foxtail, Giant [11, 24]: 0 | Plant response rating, Pigweed [12, 23]: 0 | Plant response rating, Pigweed [12, 24]: 0 | Plant response rating, Ragweed [13, 23]: 0 | Plant response rating, Ragweed [13, 24]: 0 | Plant response rating, Ryegrass, Italian [14, 23]: 0 | Plant response rating, Ryegrass, Italian [14, 24]: 0 | Plant response rating, Wheat [15, 23]: 0 | Plant response rating, Wheat [15, 24]: 0 | Plant response rating, Barnyardgrass [16]: 0 | Plant response rating, Ducksalad [17]: 50 | Plant response rating, Rice (rice (Oryra sativa)): 0 | Plant response rating, Sedge, Umbrella [18]: 0
